Laboratory results from patent publication US9642854B2, “Flavanoid compounds and process for preparation thereof” (Council of Scientific & Industrial Research, priority 2009, dated 2017).

Key:
Format in all cases: cell-based, Helicobacter pylori
[1] = tested on: H. pylori; assay: Anti H. pylori screening by disc diffusion susceptibility assay; parameters: key: strongly active (diameter>30 mm) and were given a score of 3^+; intermediate active (^˜20-30 mm diameter) and were given a score of 2^+; moderately active (^˜10-20 min diameter) and were given a score of 1^+; not active (>10 mm diameter); details: 100 and 200 μg/disc, majority of the strains
Method: (§1) The discs were impregnated with […] of each of the compounds, dissolved either in ethanol or DMSO, and the zone of inhibition was measured after 72 h of growth under microaerophilic conditions at 37° C. Inhibition zone diameter ranging 10-20 mm was given a score of ^+, 20-30 mm as ^++ and that of >30 mm as ^+++, as obtained employing dose range of […]/disc. The detailed structural information of the molecules is provided under ‘Description of the Compounds’.
(§2) Methods and protocols for the determination of inhibition zone diameter are as stated under Experiment 1, and that of MIC values by microbroth dilution assay as in Experiment 3. ‘Nil’ means zone of inhibition below 10 mm.
(§3) The anti H. pylori activity of all 16 flavonoid molecules, 2 naturally isolated and 14 synthetic derivatives, was screened by disc diffusion sensitivity assay employing 2 clinical strains HP001 and HP002, and three standard strains ATCC® 700392, 43504 and 49503. A 0.5 mL inoculum (10^8 CFU/mL) for each bacterial strain tested was flooded on freshly prepared Brain Heart Infusion (BHI) agar plates supplemented with 7% FCS, 0.5% IsoVitalex and 0.0025% DENT® and the discs (5 mm diameter) containing different compounds or antibiotics (dissolved either in ethanol or DMSO) were placed on the agar surface. After incubation for 3 days in a microaerophilic atmosphere at 37° C., the diameter of the zone of inhibition was measured (Glupczynsky, 1996; McNulty et al., 2002).

[2] = tested on: H. pylori; assay: as above; details: 100 and 200 mg/disc (so in the source), 72 h
In short: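 Clinical strains HP001, HP002 and ATCC 700392, 43504, 49503 (10^8 CFU/mL) spread on supplemented BHI agar; 5 mm discs loaded with 100 and 200 […] compound in ethanol or DMSO. Zones read after 72 h microaerophilic growth at 37 °C; scored + (10-20 mm), ++ (20-30 mm), +++ (>30 mm), Nil <10 mm.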

[3] = tested on: H. pylori; assay: as above; parameters: key: strongly active (3^+, diameter>30 mm); intermediate active (2^+, ˜20-30 mm diameter); moderately active (1^+, ˜10-20 mm diameter); not active (<10 mm diameter); details: two doses, majority of the strains
Method: as §1, §2, §3

[4] = tested on: H. pylori; assay: Anti H. pylori spectrum (MIC) by agar dilution method; details: for MIC50: MIC against 50% of the strains of the panel; for MIC Range: panel of 6 clinical isolates and 4 standard strains
In short: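 Agar dilution per CLSI against six clinical isolates and four standard strains on BHI agar with 7% FCS, 0.5% IsoVitalex and DENT. Inoculum ~10^8 CFU/mL; 2-fold compound dilutions from 1.56-100; 72 h microaerophilic at 37 °C. MIC read visually as no growth, in duplicate; MIC50 covers 50% of strains.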

Compound | Activity class by inhibition zone diameter [1] | Inhibition zone diameter (score) ([2]; ATCC standard strain 43504) | Inhibition zone diameter (score) ([2]; ATCC standard strain 49503) | Inhibition zone diameter (score) ([2]; ATCC standard strain 700392) | Inhibition zone diameter (score) ([2]; clinical strain HP001) | Inhibition zone diameter (score) ([2]; clinical strain HP002) | Activity class by inhibition zone diameter [3] | MIC50 [4] | MIC Range [4]
4-methyl-benzoic acid 5-hydroxy-6-methoxy-4-oxo-2-phenyl-4-H-chromen-yl ester [ORPM-1] | not active | Nil (‘Nil’ means zone of inhibition below 10 mm) | Nil (‘Nil’ means zone of inhibition below 10 mm) | Nil (‘Nil’ means zone of inhibition below 10 mm) | + (Inhibition zone diameter ranging 10-20 mm was given a score of ^+) | Nil (‘Nil’ means zone of inhibition below 10 mm) | not active | – | –
O=c1cc(-c2ccccc2)oc2cc(OCCCN3CCOCC3)cc(O)c12 [CHM-2, 5-Hydroxy-7-(3-morpholin-4-yl-propoxy)-2-phenyl-chromen-4-one] | not active | Nil (‘Nil’ means zone of inhibition below 10 mm) | Nil (‘Nil’ means zone of inhibition below 10 mm) | Nil (‘Nil’ means zone of inhibition below 10 mm) | Nil (‘Nil’ means zone of inhibition below 10 mm) | Nil (‘Nil’ means zone of inhibition below 10 mm) | not active | – | –
CN(C)CCCCCCOc1cc(O)c2c(=O)cc(-c3ccccc3)oc2c1 [CHN-1, 7-(6-Dimethylamino-hexyloxy)-5-hydroxy-2-phenyl-chromen-4-one] | not active | Nil (‘Nil’ means zone of inhibition below 10 mm) | Nil (‘Nil’ means zone of inhibition below 10 mm) | Nil (‘Nil’ means zone of inhibition below 10 mm) | Nil (‘Nil’ means zone of inhibition below 10 mm) | Nil (‘Nil’ means zone of inhibition below 10 mm) | not active | – | –
O=c1cc(-c2ccccc2)oc2cc(O)cc(O)c12 [Chrysin, 5,7-Dihydroxy-2-phenyl-chromen-4-one, reference compound] | not active | Nil (‘Nil’ means zone of inhibition below 10 mm) | Nil (‘Nil’ means zone of inhibition below 10 mm) | Nil (‘Nil’ means zone of inhibition below 10 mm) | Nil (‘Nil’ means zone of inhibition below 10 mm) | Nil (‘Nil’ means zone of inhibition below 10 mm) | not active | much higher | much higher
CCCCCCCCCCCCCCCCC(=O)Oc1cc2oc(-c3ccccc3)cc(=O)c2c(O)c1OC [ORC-16, Heptadecanoic acid 5-hydroxy-6-methoxy-4-oxo-2-phenyl-4H-chromen-7-yl ester] | not active | Nil (‘Nil’ means zone of inhibition below 10 mm) | Nil (‘Nil’ means zone of inhibition below 10 mm) | Nil (‘Nil’ means zone of inhibition below 10 mm) | Nil (‘Nil’ means zone of inhibition below 10 mm) | Nil (‘Nil’ means zone of inhibition below 10 mm) | not active | – | –
COc1c(O)cc2oc(-c3ccccc3)cc(=O)c2c1O [Oroxylin A, reference compound] | not active | Nil (‘Nil’ means zone of inhibition below 10 mm) | Nil (‘Nil’ means zone of inhibition below 10 mm) | Nil (‘Nil’ means zone of inhibition below 10 mm) | Nil (‘Nil’ means zone of inhibition below 10 mm) | Nil (‘Nil’ means zone of inhibition below 10 mm) | not active | much higher | much higher
